Test results reported in a melting point compilation (Tetko et al.).

Row | SMILES | melting point [°C]
1 | CCC1CN2CCC3(C(=O)Nc4ccccc43)C2CC1C(=COC)C(=O)OC (stereo not drawn) | 216
2 | C=CCC1(O)CCC2C3CCC4=CCCCC4C3CCC21C (stereo not drawn) | 80
3 | CC1CC2C3CCC4=CC(=O)C=CC4(C)C3C(=O)CC2(C)C1(O)C(=O)CO (stereo not drawn) | 202
4 | O=c1cc(NC2CCCCC2)c2ccccc2o1 | 194
5 | O=C=Nc1ccc2c(c1)OCCOCCOCCOCCOCCO2 | 61 to 63
6 | CC1(C)C(C=C(Cl)C(F)(F)F)C1C(=O)O (stereo not drawn) | 108
7 | N#Cc1c(F)ccc([N+](=O)[O-])c1F | 52.5
8 | CCC1=[N+]([O-])C(C)(C)N(C)C1(C)C | 32 to 34
9 | CC(O)Cn1cnc2c1c(=O)n(C)c(=O)n2C (stereo not drawn) | 136
10 | CC(CO)C1CCC2C3CCC4=CC(=O)C=CC4(C)C3CCC12C (stereo not drawn) | 178 to 184
11 | OCCCN1CCNCC1 | 50
12 | O=C1O[C@H](C(Cl)(Cl)Cl)N2CCC[C@@H]12 (relative stereo) | 110
13 | CC(C)(C)N(NC(=O)c1ccccc1)C(=O)c1c(F)cccc1F | 194
14 | c1ccc(-c2nc3ccccc3nc2-c2cccc3ccccc23)cc1 | 138
15 | O=C1CCC(c2ccc(NC(=O)Nc3ccccc3)cc2)=NN1 | 335 to 338
16 | BrCc1nc2ccccc2s1 | 47
17 | CC12CCC(O)C(C)(C)C1C(=O)C(=O)c1c(O)c(C(CO)CO)c(O)c(O)c12 (stereo not drawn) | 238 to 240
18 | CN(C)C(=S)Cl | 42.5
19 | NC(=O)C1=CNCCC1C(F)(F)F (stereo not drawn) | 184 to 187
20 | CCCCCCCCCCCCCCCCCC(=O)OCC(O)CO (stereo not drawn) | 74
21 | CCCCCCCCCCCCCCCCCc1ccccc1 | 32
22 | CCCCCCCCC=O | -18
23 | C=CCc1cc2c(c(OC)c1OC)OCO2 | 29.5
24 | Cn1c(/C(C#N)=N/Nc2ccc(Cl)cc2Cl)nc2ccccc21 | 160
25 | N#Cc1c(S)nc2c(c1C(F)(F)F)CCCC2 | 216 to 220

Row | SMILES | melting point [°C]
26 | COP(=O)(OC)OC(=CCl)c1ccc(Cl)cc1Cl | 69.5
27 | Nc1cc([N+](=O)[O-])c(/C=C/c2ccccc2)cc1/C=C/c1ccccc1 | 111
28 | C[Si](C)(C)OS(=O)(=O)O[Si](C)(C)C | 47 to 50
29 | CCC1(C)CC(=O)NC(=O)C1 | 126
30 | Clc1ccc(CSc2ccc(Cl)cc2)cc1 | 75
31 | Cn1ccccc1=S | 89.5
32 | CC(=O)C(C(C)=O)=C1SCCS1 | 91
33 | N#Cc1c(C(F)(F)F)cc(-c2cccs2)[nH]c1=O | 293 to 295
34 | OCC1NC(CO)C(O)C1O (stereo not drawn) | 102
35 | Clc1cc(Cl)c2c(c1)Oc1cc(Cl)c(Cl)cc1O2 | 194
36 | CCCCCCCCCCCCCCCCCC(=O)OCCOC(=O)CCCCCCCCCCCCCCCCC | 79
37 | Clc1ccc(-n2cccc2)cc1 | 88 to 91
38 | CC1C(=O)OC2CCN3CC=C(COC(=O)C(C)(O)C1(C)O)C23 (stereo not drawn) | 197 to 204
39 | CC(C)OC(=O)Nc1cccc(Cl)c1 | 42
40 | Cc1cn(C2CCC(CO)O2)c(=O)[nH]c1=O (stereo not drawn) | 156
41 | C=C1/C(=N/Nc2cc(Cl)c(Cl)cc2Cl)C(=O)N(C)C(=O)N1C | 242
42 | CCCCCCCCCCCCCCCC(=O)OC1CCC2(C)C(=CCC3C2CCC2(C)C(C(C)CCCC(C)C)CCC32)C1 (stereo not drawn) | 75 to 77
43 | Cc1n[nH]c(SCC#N)n1 | 158 to 160
44 | C(C#CCOc1ccccc1)#CCOc1ccccc1 | 82
45 | O=CC=O | 15
46 | O=C1C=CC=C2CC1=CC=CC2=O | 147
47 | Brc1cnc2c(c1)OCCN2 | 116 to 119
48 | O=C1Nc2ccccc2C=NC2CCCCC2N=Cc2ccccc2NC(=O)O1 (stereo not drawn) | 253 to 255
49 | CN(C)C1=NC(=O)C(c2ccccc2)O1 (stereo not drawn) | 133

The remaining lines, values ahead:

Row | melting point [°C] | SMILES
50 | 41 to 43 | NCc1ccc2sccc2c1
51 | 140 to 141 | O=C(Cl)c1ccc(-c2ccccn2)s1
52 | 177 | Clc1cc(Cl)c2c(oc3c(Cl)cccc32)c1Cl
53 | 145 | CCOC(=O)Nc1ccc2cc3ccc(NC)c(CO)c3nc2c1
54 | 60 to 65 | Brc1nc(Br)n(Cc2ccccc2)n1
55 | 155 to 157 | CCOC(=O)c1c(-c2ccc(-c3ccccc3)cc2)csc1N
56 | 192 | NC(N)=NS(=O)(=O)c1ccc(N)cc1
57 | 101 | Cc1ccc2cc(N(C)C)ccc2n1
58 | 211 | Cc1ccc(-c2csc(/C(C#N)=N\Nc3ccc(Cl)cc3Cl)n2)cc1
59 | 103 to 104 | Cc1cc(I)c(C)cc1I
60 | 169 | ON=Cc1ccc2ccccc2c1
61 | 138 | C/C(OCCc1ccc([N+](=O)[O-])cc1)=C(\C#N)c1ccccc1
62 | 162 to 163 | COC(=O)c1cc2oc(C=O)cc2n1C
63 | 70 to 72 | Cn1nc(-c2ccccc2)cc1CCl
64 | 47.5 | Cc1cncc(C)n1
65 | 29 | CC(C)(c1ccccc1)c1ccccc1
66 | 57 to 62 | COC(=O)CC(=O)c1ccc(C(F)(F)F)cc1
67 | 28 to 30 | C#Cc1ccc(OC)cc1
68 | 31 | O=S(=O)(Cl)c1ccccc1OC(F)(F)F
69 | 100 | CCC(=O)c1ccc(OCc2ccccc2)cc1
70 | 162 | CCC(C(=O)NC(N)=O)c1ccccc1 (stereo not drawn)
71 | 193 to 196 | CSc1nc(N)nc(-c2ccccn2)n1

Row | melting point [°C] | SMILES
72 | 211 | Cc1cccc(C(=O)N(NC(=O)c2ccccc2)C(C)(C)C)c1
73 | 71 | Cc1cc(C(C)(C)C)c(O)c(C(C)(C)C)c1
74 | 135 | CC(=O)c1cc(C)cc([N+](=O)[O-])c1O
75 | 185 | CCC(C)OC(=O)C1=C(C)NC(=O)NC1c1ccco1 (stereo not drawn)
76 | 48 to 49 | O=Cc1cccc(-c2ccsc2)c1
77 | 184 to 187 | Cc1cc(C(=O)O)c(C)n1Cc1cccs1
78 | 112 to 114 | Cc1nc(-c2cccc(C#N)c2)cs1
79 | 52 to 54 | COC(=O)c1ccc(C(=O)OC)c(Br)c1
80 | 212 | COc1ccccc1N/N=C(\C(N)=O)c1nc2ccccc2s1
81 | 87 | O=C(O)CC=Cc1ccccc1
82 | 72 to 77 | ON=Cc1ccccc1Cl
83 | 146 to 148 | O=Cc1c[nH]nc1-c1ccccc1
84 | 99 to 100 | O=C(/C=C/OC(=O)c1ccccc1)CCc1ccccc1
85 | 286 | CSc1nc2[nH]c(Cc3ccccc3)nc(=O)c2n1C
86 | 39 | COc1cc(C)cc(OC)c1O
87 | 252 to 256 | Cn1cccc1-c1nnc(S)n1-c1ccc(Cl)cc1Cl
88 | 205 | CCOC(=O)c1c(SC)nn(C(=O)NNc2ccccc2)c1N
89 | 287 | Cc1cc2c(C#N)c3sc4ccccc4n3c(=O)c2c(C)n1
90 | 110 | O=Nc1c(O)ccc2ccccc12
91 | 182 | COc1cccc(C=C(C(=O)O)C(=Cc2cccc(OC)c2)C(=O)O)c1
92 | 184 | O=C(O)c1ccc(Br)nc1
93 | 30.5 | CCOc1cc(C)ccc1O
